According to patent US8466147B2, “Use of reversine and analogs for treatment of cancer” (Dana-Farber Cancer Institute, Inc., priority 2006, dated 2013):

Columns and labels:
various kinases = conditions: 500 nM
Experimental: In vitro activity against kinases. Kinase activity was screened using 500 nM of reversine (in 1% DMSO) and ATP using the Invitrogen Z′-LYTE™ kinase assay platform (Invitrogen). In summary, in first reaction the kinase transfers the gamma-phosphate of ATP to a single tyrosine, serine or threonine residue in a synthetic FRET-peptide. In the secondary reaction, a site-specific protease recognizes and cleaves non-phosphorylated FRET-peptides. To calculate kinase activity, the ratio of donor emission to acceptor emission after excitation of the fluorophore at 400 nm was compared.

[1] = test system: GFP-luc expressing MM.1R cells; conditions: 72 hrs, luciferase readout
Experimental: (§1) Activity against myeloma cells in co-culture with bone marrow stromal cells. Co-culture Stromal cells were plated at a density of 10,000 cells per well in optical 96-well plates and were incubated for 24 hrs to allow for attachment. Tumor cell lines stably expressing luciferase were plated at 1500 cells per well. Cells were treated immediately following plating and incubated for 72 hrs. Luciferin substrate was added to cultures, mixed, and incubated at room temperature. Samples were read using a Luminoskan luminometer (Labsystems, Ramsey, Minn.).

[2] = test system: GFP-luc expressing MM.1S cells; conditions: 72 hrs, luciferase readout
Experimental: as §1

chicken B-cell line DT40 = conditions: FIG. 13
MR20 myeloma cells = conditions: 72 hours
Experimental: Treatment of reversine in the Side Populations of MR20 myeloma cells. MR20 cells were plated at a density of 1×10*5 cells/mL in RPMI media supplemented with Pen/Strep and 10% FBS. Reversine was added to the cells at a range of concentrations, the cells were then incubated for 72 hrs at 37 degrees C. Following the incubation period, the cells were collected and stained with Hoescht, and counter stained with 7-AAD. Reserpine, a inhibitor of the membrane transporter, was added to a sample of control cells to identify the “side population” cells (control). The samples were then analyzed on a BD FACS Aria with a UV laser to excite the Hoescht stain. The samples were first gated on the cellular fraction (by forward and side scatter), then on the viable cells (7-AAD negative), then on the Hoescht-Blue negative Hoescht-Red negative fraction representing the Side Population.

[3] = test system: tumor cell lines, including myeloma, leukemia, lymphoma and thyroid
Description: Cell lines. ARD, ARH-77, ARK, ARO, ARP-1, BHT101, BHP-10-3, BHP-14-9, BHP-17-10, BHP-18-17, BHP-19-24, BHP2-7, BHP-5, BHP-7, DHL-4, DHL-6, DHL-7, DHL-8, DHL-10, Dox6, EJM, FRO, IM9, INA-6, JJN3, KAT-4, KAT-4B, KAT4C, KAT18, KMS-1, KMS-11, KMS-12BM, KMS-18, KMS-20, KMS-26, KMS-28-BM, KMS-28-PE, KMS-34, KMS-5, L363, LPCL-HO, LRS, MM-AS, MEG-01, MM144, MM-1R, MM-1S, MM1S-Akt, MMSV, Namalwa, NCI-H929, NOP2, NPA, OCI MY1, OCI-MY5, OCI-My7, OPM-1, OPM-2, OPM-6, RPMI8226, S6B45, SKMM2, SW579, SW1736, THLE-3, TK PCL, TT, U266, WM-WSU, WRO, XG1, and ZR-75-1 were grown in either Dulbecco's modified Eagle's medium (DMEM) (BioWhittaker, Walkersville, Md.) or Roswell Park Memorial Institute medium (RPMI) (BioWhittaker) with 100 U/ml penicillin, 100 μg/ml streptomycin and 10% fetal calf serum (FCS) (GIBCO/BRL, Gaithersburg, Md.), unless stated otherwise.
(§2) MTT cell survival assay. Viability of cells treated with reversine, alone or combined with other agents, was assessed by measuring 3-(4,5-dimethylthiazol-2-yl)-2,5-diphenyl […] bromide (MTT, Chemicon International, Temecula, Calif.) dye absorbance. Cells were pulsed with 1:10 the culture volume of 5 mg/ml MTT to each well for the last 4 hrs of 72 hr cultures, followed by 1.5-3 fold the culture volume of isopropanol containing 0.04N HCl. Absorbance was measured at 570/630 nm using a spectrophotometer (Molecular Devices Corp., Sunnyvale Calif.). Recombinant human IL-6 and IGF (R&D Systems; Minneapolis, Minn.) was used at 10 ng/mL and 50 ng/mL respectively, as indicated. For testing normal PBMCs, healthy donor blood was collected using heparinized tubes, separated by Ficoll (Amersham Biosciences; Sweden) gradient separation and plated at 150,000 cells per well and pre-stimulated, as indicated, with 5 ng/mL PHA (Sigma) for 24 hrs.

MM.1S cells = conditions: 1 microM reversine, 2-48 hr
Experimental: Immunoblotting analysis. Immunoblotting was performed by scrapping cells (1×10^6), centrifuged briefly and lysed for 30 min on ice in 50 mM Tris-HCl, pH 8.0, containing 120 mM NaCl and 1% Igepal, supplemented with the Complete-TM mixture of proteinase inhibitors. The samples were cleared by centrifugation (14,000 rpm, 30 min, 4° C.) and assessed for protein concentration. SDS-polyacrylamide gel electrophoresis (12%) was performed (30-50 μg of protein per lane) and the proteins were electroblotted onto PVDF membranes. After 1 hour incubation in blocking solution (5% milk in TBST), the membranes were exposed to primary antibody overnight at 4° C. Following washing in TBST, the respective secondary HRP-labeled antibody was added at 1:20,000 dilution for 1 hr at room temperature. The membrane was then washed with TBST for 45-60 min with multiple changes of the wash buffer. Following washing, the protein expression was visualized using the ECL technique. The primary antibodies used for immunoblotting were purchased from Santa Cruz Biotechnology (Santa Cruz, Calif.), Upstate Biotechnologies (Lake Placid, N.Y.) or Cell Signaling (Beverly, Mass.). Secondary antibodies were purchased from (Jackson ImmunoResearch West Grove, Pa.).

MM cell lines = conditions: reversine 1 μM, washout, then drug-free medium
Experimental: Cell death commitment assay. The minimum time length of exposure to reversine that is required to commit MM cells to apoptosis was evaluated by incubating cells in 24-well plates with reversine (1 μM) for 1, 2, 4, 8, 16 or 24 hours. At the end of this incubation, the cells were washed 3 times and incubated in drug-free medium for an additional 3 days, resulting in equal length of total incubation for all experimental conditions ([…]), at which point cell survival was quantified by MTT, as above, and expressed as percentage of the value obtained from respective controls.

OPM2 cells = conditions: oral gavage, 1 mg/kg twice weekly
Description: Anti-myeloma activity in animals. […] Briefly, male (6 to 8-week old) SCID/Beige mice, housed and monitored in the Animal Research Facility of the Dana-Farber Cancer Institute, were irradiated (300 rads) using Cs^137 gamma-irradiator source, and received (24 hrs post-irradiation) tail i.v. injections of 10^6 OPM2 cells suspended in total volume of 200 microL of phosphate buffered saline (PBS) per mouse. Mice were monitored for changes in body weight and signs of infection or paralysis. In accordance with institutional guidelines, mice were sacrificed by CO2 inhalation in the event of paralysis or major compromise in their quality of life. All experimental procedures and protocols had been approved by the Animal Care and Use Committee of the Dana-Farber Cancer Institute. Overall survival (defined as time between i.v. injection of tumor cells and sacrifice or death) was compared in control vs. 1 mg/mg reversine-treated (P.O. twice weekly) mice by Kaplan-Meier method.

[4] = test system: MM cells (MM.1S, OPM-1 human tumor cells); conditions: 1 microM reversine
Description: Cell cycle analysis. Cell lines, treated with reversine for 0, 2, 4, 8,16, 24, and 48 hrs were stained using a solution of propidium iodide (Sigma) and RNase A following 70% EtOH fixation.

[5] = test system: peripheral blood mononuclear cells (PBMCs)
Experimental: as §2

MM cells [6] = conditions: combined with dexamethasone (5 nM)
Experimental: as §2

stromal cells = conditions: 1 microM, in vitro
Experimental: as §2

hepatocytes = conditions: 1 microM, in vitro
Experimental: as §2

MM.1S tumor cell line = test system: MM.1S tumor cell line
Experimental: as §2

[7] = test system: primary myeloma tumor specimens from heavily pre-treated patients
Experimental: as §2

various phosphatases = conditions: 500 nM
Experimental: In vitro activity against phosphatases. In vitro phosphatase activity was screened at 500 nM reversine using the DiFMUP technology (Molecular Probes). Briefly, 6,8-difluoro-4-methylumbelliferyl phosphate substrate is combined with ATP and drug. The removal of the phosphate group on 6,8-difluoro-4-methylumbelliferyl yields a more fluorescent version of the substrate than the non-hydrolyzed form. The amount of fluorescent signal directly corresponds to the level of phosphatase activity.

MM cells [8] = test: Anti-MM activity of reversine analog; type: cell-based; conditions: FIG. 14
Experimental: MTT cell survival assay. Viability of cells treated with reversine, alone or combined with other agents, was assessed by measuring 3-(4,5-dimethylthiazol-2-yl)-2,5-diphenyl tetrasodium bromide (MTT, Chemicon International, Temecula, Calif.) dye absorbance. Cells were pulsed with 1:10 the culture volume of 5 mg/ml MTT to each well for the last 4 hrs of 72 hr cultures, followed by 1.5-3 fold the culture volume of isopropanol containing 0.04N HCl. Absorbance was measured at 570/630 nm using a spectrophotometer (Molecular Devices Corp., Sunnyvale Calif.). Recombinant human IL-6 and IGF (R&D Systems; Minneapolis, Minn.) was used at 10 ng/mL and 50 ng/mL respectively, as indicated. For testing normal PBMCs, healthy donor blood was collected using heparinized tubes, separated by Ficoll (Amersham Biosciences; Sweden) gradient separation and plated at 150,000 cells per well and pre-stimulated, as indicated, with 5 ng/mL PHA (Sigma) for 24 hrs.

Question: `c1nc2nc(Nc3ccc(N4CCOCC4)cc3)nc(NC3CCCCC3)c2[nH]1` [reversine, 2-(4-morpholinoanilino)-6-cyclohexylaminopurine] was tested. Which “inhibition of kinase activity” value (various kinases) did it give?
Answer: The value was “inhibition of kinase activity was observed”.

Question: What about the “sensitivity in co-culture with bone marrow stromal cells” value [1] of the same molecule?
Answer: The value was “increased”.

Question: What about the “sensitivity in co-culture with bone marrow stromal cells” value [2] of the same molecule?
Answer: The value was “increased”.

Question: What about the “sensitivity of syk-expressing versus syk-/- DT40 cells” value (chicken B-cell line DT40) of the same molecule?
Answer: The value was “more sensitive”.

Question: And the “sensitivity of side population (SP) cells versus main population” value (MR20 myeloma cells)?
Answer: The value was “more sensitive than the main population”.

Question: What about the “percentage of SP cells” value (MR20 myeloma cells; increasing concentrations) of the same molecule?
Answer: The value was “decreased with increasing doses”.

Question: And the “concentration with significant anti-tumor activity” value ([3]; in many cases)?
Answer: Its value is at most 1 µM.

Question: What about the “anti-tumor effects in tumor cell lines” value ([3]; myeloma, leukemia, lymphoma and thyroid lines, FIG. 1) of the same molecule?
Answer: Its value is “anti-tumor effects in a broad range of tumor cell lines”.

Question: What about the “anti-tumor effect, potency in words” value ([3]; subset of MM cell lines) of the same molecule?
Answer: Its value is “sub-micro molar anti-tumor effect”.

Question: What about the survival rate ([3]; wide variety of tumor cell lines, reversine between 1 and 10 μM, 72 hour exposure) of the same molecule?
Answer: Its survival rate is 0%.

Question: What about the “B-raf and Akt levels” value (MM.1S cells) of the same molecule?
Answer: The value was “inhibition of B-raf and Akt levels”.

Question: And the “apoptosis markers (caspase 3, PARP)” value (MM.1S cells)?
Answer: The value was “cleavge of caspase 3 and PARP”.

Question: And the “effect on chaperone proteins Hsp70 and Hsp90” value (MM.1S cells)?
Answer: Its value is “minimal affects”.

Question: What about the “phospho-specific proteins (phospho-Akt, phospho-MEK, phospho-MAPK, phospho-IKB, phospho-p70S6K)” value (MM.1S cells; no increase in total protein levels) of the same molecule?
Answer: The value was “increased levels”.

Question: What about the “treatment time that commits cells to death” value (MM cell lines) of the same molecule?
Answer: The value was “less than 24 hrs”.

Question: And the “survival compared to control mice” value (OPM2 cells)?
Answer: Its value is “Survival was extended”.

Question: And the “exposure time after which the sub-G0 fraction increases” value [4]?
Answer: The value was “more than 16 hr”.

Question: What about the “time of G2 arrest after initial exposure” value [4] of the same molecule?
Answer: Its value is 8 to 16 h.

Question: And the “toxicity to PBMCs stimulated with phytohaemagglutinin” value ([5]; PHA-stimulated, in vitro)?
Answer: The value was “limited toxicity”.

Question: What about the “toxicity to PBMCs” value ([5]; unstimulated, doses as high as 10 microM) of the same molecule?
Answer: Its value is “does not cause major toxicity”.

Question: What about the “anti-MM activity of combination” value (MM cells [6]) of the same molecule?
Answer: The value was “greater than additive”.

Question: What about the “toxicity to stromal cells” value (stromal cells) of the same molecule?
Answer: The value was “minimal toxicity”.

Question: And the toxicity to hepatocytes (hepatocytes)?
Answer: The toxicity to hepatocytes was “minimal toxicity”.

Question: And the “difference in normalized effect with versus without cytokines” value (MM.1S tumor cell line; 10 μM reversine)?
Answer: Its value is “virtually no difference”.

Question: And the tumor cell viability (MM.1S tumor cell line; presence or absence of cytokines (IL-6, IGF))?
Answer: The tumor cell viability was “dose dependent decrease in tumor cell viability”.

Question: What about the “dose with anti-MM activity” value [7] of the same molecule?
Answer: Its value is at most 1 µM.

Question: What about the “inhibition of phosphatase activity” value (various phosphatases) of the same molecule?
Answer: The value was “inhibition of phosphatase activity was not seen”.

Question: How did the “anti-MM activity in comparison with reversine” value (MM cells [8]) turn out when `c1nc2nc(NC3CCCCC3)nc(Nc3ccc(N4CCOCC4)cc3)c2[nH]1` [retreversine] was run?
Answer: The value was “reduced activity”.
